Experimental data published in the CheMixHub viscosity set.
Where “and” joins values, the source holds several entries; their conditions need not be identical. Equal values may be shown once.

How the values were obtained:
[1] = xn = mol fraction of the nth substance listed

Cn1cc[n+](CCCC#N)c1.O=S(=O)([O-])C(F)(F)F
101 kPa
Conditions	viscosity [mPa·s]
293.15 K	811.5
298.15 K	580.6
303.15 K	422.5
308.15 K	310.1
313.15 K	230.6
318.15 K	177.1
323.15 K	141.4

CCCCCCCCCCOC(C)=O
Conditions	viscosity [mPa·s]
303.15 K, 101.3 kPa	2.145

CCOCCO
viscosity
Conditions	293.15 K	298.15 K	303 K	303.15 K	308.15 K	313 K	313.15 K	318.15 K	323.15 K
100 kPa	–	1.92 mPa·s	–	1.682 mPa·s	–	–	–	–	–
101 kPa	2.054 mPa·s	1.814 mPa·s	1.67 mPa·s	–	1.487 mPa·s and 1.453 mPa·s and 1.469 mPa·s	1.341 mPa·s	1.336 mPa·s and 1.341 mPa·s and 1.368 mPa·s	1.279 mPa·s	1.065 mPa·s
101.3 kPa	2.04 mPa·s	1.819 mPa·s	–	1.631 mPa·s	1.402 mPa·s and 1.47 mPa·s	–	1.332 mPa·s	1.212 mPa·s	1.108 mPa·s
101.33 kPa	–	–	–	–	–	–	–	1.18 mPa·s	–

N#C[C-](C#N)C#N.OCCC[n+]1ccccc1
101 kPa
Conditions	viscosity [mPa·s]
293.15 K	126.3
298.15 K	92.54
303.15 K	69.51
308.15 K	53.84
313.15 K	42.53
318.15 K	34.64
323.15 K	28.1

CC(CC(C)(C)C)CP(=O)(O)CC(C)CC(C)(C)C (centres undefined)
Conditions	viscosity [mPa·s]
298.15 K, 101 kPa	120

Cc1cccc(Cl)c1
viscosity
Conditions	303.15 K	308.15 K	313.15 K	318.15 K
100 kPa	0.743 mPa·s	0.701 mPa·s	0.663 mPa·s	0.624 mPa·s
101 kPa	0.751 mPa·s and 0.743 mPa·s	0.701 mPa·s	0.652 mPa·s and 0.663 mPa·s	0.624 mPa·s

CC(C)CCO
Conditions	viscosity
293.15 K, 101.33 kPa	4.579 mPa·s
298.1 K, 101 kPa	3.841 mPa·s and 3.798 mPa·s
298.15 K, 100 kPa	3.74 mPa·s
298.15 K, 101.3 kPa	3.48 mPa·s
298.15 K, 101.33 kPa	3.581 mPa·s
303.15 K, 101.3 kPa	2.95 mPa·s and 2.958 mPa·s and 2.96 mPa·s
308.15 K, 100 kPa	2.654 mPa·s
308.15 K, 101 kPa	2.805 mPa·s and 2.61 mPa·s and 2.881 mPa·s
308.15 K, 101.3 kPa	2.53 mPa·s
308.15 K, 101.33 kPa	2.59 mPa·s
313.15 K, 101.3 kPa	2.21 mPa·s
313.15 K, 101.33 kPa	2.537 mPa·s and 2.391 mPa·s
318.15 K, 101 kPa	2.05 mPa·s and 2.23 mPa·s
323.15 K, 101 kPa	1.867 mPa·s and 1.974 mPa·s
323.15 K, 101.33 kPa	1.827 mPa·s

Oc1ccc(Cl)cc1
Conditions	viscosity [mPa·s]
308.15 K, 101.33 kPa	8.228

CNC(C)=O
viscosity
Conditions	293.15 K	298.15 K	303.15 K	303.18 K	308.15 K	313 K	313.15 K	318.15 K
101 kPa	5.56 mPa·s	4.771 mPa·s	4.087 mPa·s and 3.822 mPa·s (2×)	3.65 mPa·s	3.535 mPa·s	3.012 mPa·s	3.078 mPa·s and 2.904 mPa·s	2.764 mPa·s and 2.607 mPa·s
101.33 kPa	–	–	–	–	3.38 mPa·s	–	3.012 mPa·s and 3.004 mPa·s	2.673 mPa·s

CNCCO
viscosity
Conditions	293.15 K	298.15 K	303.15 K	308.15 K	313.15 K	318.15 K	323.15 K
101 kPa	–	–	8.596 mPa·s	7.075 mPa·s	5.892 mPa·s	4.949 mPa·s	4.204 mPa·s
101.3 kPa	13.23 mPa·s	10.63 mPa·s	8.612 mPa·s and 8.535 mPa·s	7.07 mPa·s and 7.014 mPa·s	5.883 mPa·s and 5.841 mPa·s	4.953 mPa·s and 4.919 mPa·s	4.214 mPa·s and 4.186 mPa·s
101.33 kPa	–	12 mPa·s	9.528 mPa·s	–	6.396 mPa·s	–	–

CCCCCCCCBr
101 kPa
Conditions	viscosity [mPa·s]
293.15 K	1.544
303.55 K	1.406
313.65 K	1.204

C[C@@H]1CCCC[C@H]1O
101 kPa
Conditions	viscosity [mPa·s]
298.15 K	37.35
303.15 K	25.29

FC(F)(F)C(F)(F)C(F)(F)C(F)(F)C(F)(F)C(F)(F)F
101 kPa
Conditions	viscosity [mPa·s]
298 K	0.635
303 K	0.589
308 K	0.548

CCOCCO + CCCCCO
[1], 298.15 K, 101 kPa
Conditions	viscosity [mPa·s]
x1 = 0.098	3.167
x1 = 0.1965	2.864
x1 = 0.2954	2.619
x1 = 0.3947	2.431
x1 = 0.4945	2.283
x1 = 0.5947	2.178
x1 = 0.6953	2.099
x1 = 0.7964	2.027
x1 = 0.898	1.954

Oc1ccc(Cl)cc1 + C[N+](C)(C)CCO.[Cl-]
[1]
Conditions	viscosity
293.15 K, 101 kPa, x2 = 0.333	170.6 mPa·s
298.15 K, 101 kPa, x2 = 0.333	123.2 mPa·s
298.15 K, 101.33 kPa, x1 = 0.7	180.2 mPa·s
298.15 K, 101.33 kPa, x1 = 0.8	108.2 mPa·s and 77.89 mPa·s and 66.12 mPa·s
298.15 K, 101.33 kPa, x1 = 0.9	61.06 mPa·s
303.15 K, 101 kPa, x2 = 0.333	92.75 mPa·s
308.15 K, 101 kPa, x2 = 0.333	71.68 mPa·s
313.15 K, 101 kPa, x2 = 0.333	55.45 mPa·s
318.15 K, 101 kPa, x2 = 0.333	43.94 mPa·s
323.15 K, 101 kPa, x2 = 0.333	35.45 mPa·s

CC(CC(C)(C)C)CP(=O)(O)CC(C)CC(C)(C)C (centres undefined) + CCCCCCCO
[1], 298.15 K, 101 kPa
Conditions	viscosity [mPa·s]
x1 = 0.0091	6.029
x1 = 0.0166	6.297
x1 = 0.0189	6.395
x2 = 0.0832	103
x2 = 0.1509	92.76
x2 = 0.2814	72.97
x2 = 0.4338	51.94
x2 = 0.5979	33.45
x2 = 0.6948	24.29
x2 = 0.7164	22.65
x2 = 0.819	14.88
x2 = 0.83	13.87
x2 = 0.8984	10.18
x2 = 0.9056	9.875
x2 = 0.9596	7.316

Oc1ccc(Cl)cc1 + O=Cc1ccccc1
[1], 308.15 K, 101.33 kPa
Conditions	viscosity [mPa·s]
x2 = 0.11	5.75
x2 = 0.304	3.8
x2 = 0.485	3.01
x2 = 0.56	2.495
x2 = 0.62	2.2
x2 = 0.728	1.79
x2 = 0.907	1.388

CCC(=O)O.OCCNCCO + CCO
[1], 303.15 K, 101 kPa
Conditions	viscosity [mPa·s]
x1 = 0.5084	116.5
x1 = 0.6965	177.5
x1 = 0.804	226.5

CCOCCO + Nc1ccccc1
[1], 303.15 K, 101 kPa
Conditions	viscosity [mPa·s]
x2 = 0.1062	2.266
x2 = 0.2109	2.394
x2 = 0.3142	2.523
x2 = 0.4162	2.74
x2 = 0.5167	2.94
x2 = 0.616	3.114
x2 = 0.7139	3.277
x2 = 0.8105	3.435
x2 = 0.9059	3.595

CCOCCO + CCCCCCCC
viscosity [mPa·s], [1], 101.33 kPa
Conditions	x1 = 0.0976	x1 = 0.1994	x1 = 0.3003	x1 = 0.4001	x1 = 0.5004	x1 = 0.5944	x1 = 0.6962	x1 = 0.7983	x1 = 0.8969
298.15 K	0.524	0.566	0.619	0.687	0.772	0.87	1.003	1.179	1.421
303.15 K	0.49	0.527	0.574	0.632	0.71	0.795	0.911	1.069	1.279
308.15 K	0.463	0.494	0.538	0.591	0.657	0.732	0.834	0.972	1.155
313.15 K	0.434	0.462	0.5	0.55	0.609	0.673	0.763	0.896	1.05

CCCCCCCCCCOC(C)=O + CCCCCC
[1], 303.15 K, 101.3 kPa
Conditions	viscosity [mPa·s]
x1 = 0.2001	0.4713
x1 = 0.4057	0.7528
x1 = 0.5086	0.9289
x1 = 0.5995	1.116
x1 = 0.7551	1.473

CNC(C)=O + CC(=O)c1ccccc1
[1], 308.15 K, 101 kPa
Conditions	viscosity [mPa·s]
x2 = 0.0686	3.109
x2 = 0.138	2.919
x2 = 0.2189	2.657
x2 = 0.3143	2.397
x2 = 0.3938	2.199
x2 = 0.4912	1.965
x2 = 0.6042	1.747
x2 = 0.7227	1.561
x2 = 0.8517	1.455

CCOCCO + NC1CCCCC1
[1], 308.15 K, 101 kPa
Conditions	viscosity [mPa·s]
x1 = 0.1163	1.345
x1 = 0.2284	1.366
x1 = 0.3366	1.391
x1 = 0.4411	1.419
x1 = 0.5421	1.437
x1 = 0.6398	1.457
x1 = 0.7342	1.459
x1 = 0.8257	1.455
x1 = 0.9142	1.45
